Assay results taken from ChEMBL document CHEMBL1141731, “Bioactive pyridoacridine alkaloids from the micronesian sponge Oceanapia sp” (J Nat Prod, 1998).
Converted amounts (≈) assume the structure as drawn. The source made the active and inactive calls. No cut-off for these calls is given here.

What was measured:
[1] = (§1) Displacement of [3H]diazepam from benzodiazepine binding site of GABAA receptor in rat brain cortical membrane; type: cell membranes
[2] = organism: Rattus norvegicus; experiment: Displacement of [3H]diazepam from benzodiazepine binding site of GABAA receptor in rat brain cortical membrane at 25 uM; type: cell membranes
[3] = molecular target: Adenosine receptor A2a (Rattus norvegicus) (UniProt P30543); experiment: Displacement of [3H]CGS21680 from adenosine A2A receptor in rat brain striatal membrane at 25 uM; type: cell membranes
[4] = tested on: MONO-MAC-6; experiment: Cytotoxicity against human MONO-MAC-6 cells assessed as incorporation of [3H]thymidine incorporation; type: functional, cell-based
[5] = tested on: Cladosporium cucumerinum; experiment: Fungicidal activity against Cladosporium cucumerinum; type: functional, organism-based
[6] = organism: Rattus norvegicus; experiment: as §1; type: cell membranes
[7] = tested on: Spodoptera littoralis; experiment: Insecticidal activity against Spodoptera littoralis larvae with artificial diet assessed survival after 6 days; type: functional; details: 144 h
[8] = tested on: Escherichia coli; experiment: Antimicrobial activities activity against Escherichia coli ATCC 25922 at 100ug/disk after 24 hrs by agar plate diffusion assay; type: functional, organism-based
[9] = molecular target: T1, Adenosine receptor A1 (Rattus norvegicus) (UniProt P25099); experiment: Displacement of [3H]CHA from adenosine A1 receptor in rat brain cortical membrane at 25 uM; type: cell membranes
T1 sequence (whole entry): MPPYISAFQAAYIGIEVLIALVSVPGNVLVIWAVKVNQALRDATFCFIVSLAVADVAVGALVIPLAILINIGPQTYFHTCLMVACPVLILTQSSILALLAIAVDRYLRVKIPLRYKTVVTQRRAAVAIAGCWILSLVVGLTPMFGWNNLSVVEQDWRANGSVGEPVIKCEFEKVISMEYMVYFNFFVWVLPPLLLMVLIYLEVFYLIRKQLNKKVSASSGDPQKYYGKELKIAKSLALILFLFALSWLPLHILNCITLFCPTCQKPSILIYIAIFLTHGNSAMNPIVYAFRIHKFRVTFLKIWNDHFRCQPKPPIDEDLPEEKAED

[10] = molecular target: T2, Adenosine receptor A1 (Rattus norvegicus, UniProt P25099); experiment: Displacement of [3H]CHA from adenosine A1 receptor in rat brain cortical membrane; type: cell membranes
T2 sequence (P25099 whole entry): T1 sequence (whole entry)

[11] = tested on: HeLa; experiment: Cytotoxicity against human HeLa cells assessed as incorporation of [3H]thymidine incorporation; type: functional, cell-based
[12] = tested on: Bacillus subtilis; experiment: Antimicrobial activities activity against Bacillus subtilis 168 at 100ug/disk after 24 hrs by agar plate diffusion assay; type: functional, organism-based; details: subsp. subtilis str. 168
[13] = Toxicity against Artemia salina after 24 hrs; type: organism-based; details: in vivo
[14] = molecular target: Adenosine receptor A2a (Rattus norvegicus, UniProt P30543); experiment: Displacement of [3H]CGS21680 from adenosine A2A receptor in rat brain striatal membrane; type: cell membranes
[15] = molecular target: T1, Adenosine receptor A1 (Rattus norvegicus); experiment: Displacement of [3H]CHA from adenosine A1 receptor in rat brain cortical membrane at 100 uM; type: cell membranes
[16] = molecular target: Adenosine receptor A2a (Rattus norvegicus) (UniProt P30543); experiment: Displacement of [3H]CGS21680 from adenosine A2A receptor in rat brain striatal membrane at 100 uM; type: cell membranes
[17] = tested on: Artemia salina; experiment: Toxicity against Artemia salina at upto 100 ug/mL after 24 hrs; type: organism-based; details: in vivo

Sequence of Adenosine receptor A2a (Rattus norvegicus) (P30543 whole entry): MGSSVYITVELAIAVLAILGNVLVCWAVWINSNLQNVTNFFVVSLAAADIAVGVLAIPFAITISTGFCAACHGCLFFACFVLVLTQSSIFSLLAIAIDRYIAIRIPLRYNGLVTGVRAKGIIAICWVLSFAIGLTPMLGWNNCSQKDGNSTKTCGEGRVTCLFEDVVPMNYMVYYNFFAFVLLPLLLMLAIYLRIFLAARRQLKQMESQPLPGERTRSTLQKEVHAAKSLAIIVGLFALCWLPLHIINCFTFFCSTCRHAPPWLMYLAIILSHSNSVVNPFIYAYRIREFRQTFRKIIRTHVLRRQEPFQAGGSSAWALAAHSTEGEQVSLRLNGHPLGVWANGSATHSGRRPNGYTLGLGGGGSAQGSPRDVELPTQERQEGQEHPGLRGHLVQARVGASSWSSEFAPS
Sequence of Adenosine receptor A2a (P30543 whole entry): as above

| Ki [1] | SMILES | Activity [2] | Activity [3] | IC50 [4] | Activity [5] | Activity [6] | LC50 [7] | Activity [8] | Activity [9] | Ki [10] | IC50 [11] | Activity [12] | LC50 at 24 h [13] | Ki [14] | Activity [15] | EC50 ([7]; read-out: ED50 (the source's name)) | Activity [16] | Activity [17] |
| --- | --- | --- | --- | --- | --- | --- | --- | --- | --- | --- | --- | --- | --- | --- | --- | --- | --- | --- |
| 376 µM | Cn1c(=O)c2c(ncn2C)n(C)c1=O [CAFFEINE] |  |  |  |  |  |  |  |  |  |  |  |  |  |  |  |  |  |
|  | CC(=O)NCCc1c2c3c(ccnc3c3ncsc13)-c1ccccc1N2 [KUANONIAMINE D] | 32% | 56% | 0.8 µg/mL (≈ 2.22 µM) | inactive | Active | 59 µg/mL (≈ 164 µM) | inactive | 68% | 2.94 µM | 1.4 µg/mL (≈ 3.88 µM) | inactive | 19 µg/mL (≈ 52.7 µM) | 13.7 µM |  |  |  |  |
|  | NCCc1c2c3c(ccnc3c3ncsc13)-c1ccccc1N2 | 30% |  | 2 µg/mL (≈ 6.28 µM) | inactive | Active |  | inactive |  |  | 1.2 µg/mL (≈ 3.77 µM) | inactive |  |  | 36% | 141 µg/mL (≈ 443 µM) | 46% | Non-toxic |
|  | CCC(=O)NCCc1c2c3c(ccnc3c3ncsc13)-c1ccccc1N2 [KUANONIAMINE C] | 39% | 43% | 1.2 µg/mL (≈ 3.2 µM) | inactive | Active | 156 µg/mL (≈ 417 µM) | inactive | 34% |  | 5.1 µg/mL (≈ 13.6 µM) | inactive | 37 µg/mL (≈ 98.8 µM) |  |  |  |  |  |
